Data reported in paper PMC11843613, “Further Optimization of the mGlu1 PAM VU6024578/BI02982816: Discovery and Characterization of VU6033685” (ACS Chemical Neuroscience, 2025).

How the values were obtained:
[1] = system: striatal DA release; experiment: Electrically evoked striatal DA release in brain slices (fast scanning cyclic voltammetry); conditions: 10 μM DHPG alone, mouse slices
Experimental: into the home cage. The arena is then cleaned with 70% ethanol in between animals. The day of the test the animals are habituated to the dosing room for 2 hours. The animals were administered VU6024578 (1-10 mg/kg p.o.) or vehicle (10% Tween 80) and were placed back into their homecage for 60 min. The animals were then injected with MK-801 (0.075 mg/kg 1 ml/kg s.c.) and placed back in the homecage for 30 min. The animals are then placed into the arena with two identical familiar objects for ten minutes and then placed back into the home cage. The animals are then placed back into the arena with one of the familiar objects replaced with a novel object at 120 min after the familiar object exposure. The activity of the animals are recorded and the time spent exploring each of the objects is scored by a blinded observer. Recognition index is determined by subtracting […] divided by total time spent exploring.
Brain Slice Preparation and Fast Scanning Cyclic Voltammetry: […]
Electrically-evoked dopamine overflow was monitored with carbon fiber electrodes as previously reported (Foster et al. 2014). […]

[2] = parameters: method as in PMID 39665415; conditions: cited from earlier work
[3] = biological target: T1, human mGlu1 (Homo sapiens, UniProt Q13255); parameters: method as in PMID 39665415; conditions: previously reported compound; cited from earlier work
T1 construct: expressed in transfected cells; pcDNA5/TO)

[4] = system: amphetamine-induced hyperlocomotion in rats; parameters: method as in PMID 39665415; conditions: cited from earlier work

T1 sequence (Q13255 19-1194): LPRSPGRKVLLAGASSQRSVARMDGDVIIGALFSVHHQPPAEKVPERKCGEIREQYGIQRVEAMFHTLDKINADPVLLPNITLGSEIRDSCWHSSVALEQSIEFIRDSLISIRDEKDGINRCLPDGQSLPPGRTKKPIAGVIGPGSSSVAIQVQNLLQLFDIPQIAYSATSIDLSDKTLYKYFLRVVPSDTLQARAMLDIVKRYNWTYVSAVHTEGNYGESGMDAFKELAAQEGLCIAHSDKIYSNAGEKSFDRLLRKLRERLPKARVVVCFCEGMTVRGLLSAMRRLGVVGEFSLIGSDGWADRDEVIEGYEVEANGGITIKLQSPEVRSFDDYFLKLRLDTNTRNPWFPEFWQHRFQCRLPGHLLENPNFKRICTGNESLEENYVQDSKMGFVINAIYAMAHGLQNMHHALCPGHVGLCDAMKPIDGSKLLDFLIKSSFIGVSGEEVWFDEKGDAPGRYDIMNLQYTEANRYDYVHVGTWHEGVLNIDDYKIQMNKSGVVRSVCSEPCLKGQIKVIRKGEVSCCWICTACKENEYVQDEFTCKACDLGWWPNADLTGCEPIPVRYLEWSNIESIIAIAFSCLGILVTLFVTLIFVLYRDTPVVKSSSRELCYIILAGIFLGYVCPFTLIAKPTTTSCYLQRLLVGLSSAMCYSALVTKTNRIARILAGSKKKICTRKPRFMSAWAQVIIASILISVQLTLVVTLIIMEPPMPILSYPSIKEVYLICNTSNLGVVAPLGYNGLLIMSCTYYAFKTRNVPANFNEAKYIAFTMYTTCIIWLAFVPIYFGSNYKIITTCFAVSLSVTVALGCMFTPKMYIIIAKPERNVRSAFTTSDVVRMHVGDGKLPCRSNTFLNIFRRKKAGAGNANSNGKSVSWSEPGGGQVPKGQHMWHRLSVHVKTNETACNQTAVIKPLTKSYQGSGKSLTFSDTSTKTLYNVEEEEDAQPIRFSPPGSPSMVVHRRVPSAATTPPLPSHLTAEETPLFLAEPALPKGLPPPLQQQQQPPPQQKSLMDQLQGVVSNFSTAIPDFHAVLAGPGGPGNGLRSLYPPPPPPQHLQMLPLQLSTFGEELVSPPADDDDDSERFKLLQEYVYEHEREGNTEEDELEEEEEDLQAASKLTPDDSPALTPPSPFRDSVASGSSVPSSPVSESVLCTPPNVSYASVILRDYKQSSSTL

Compound | effect on striatal DA release, agonist alone [1] | species with adverse events [2] | mGlu1 Glumax of 3 [3] [%] | unbound brain level as fold of rat mGlu1 EC50 at which AHL was reversed [4] [fold]
N[C@H](C(=O)O)c1cc(O)cc(O)c1 [DHPG, (S)-3,5-dihydroxyphenylglycine, reference compound] | did not produce a significant inhibition of striatal DA release | – | – | –
Cn1nc(-c2ccnn2C)cc1CNC(=O)c1cc(-c2ccco2)ccc1Cl [compound 3] | – | only exhibited AEs in dogs | 83 | ~0.7
